What was measured:
GCN2 = GCN2 (Homo sapiens, UniProt Q9P2K8); assay: GCN2 enzyme assay (TR-FRET Lanthascreen, GFP-eIF2alpha substrate); assay type: biochemical; details: for GCN2 (enzyme assay) % at 10 μM: 100% corresponds to zero effect, −50% corresponds to IC50
Description: GCN2: Assay Principle & Conditions
This assay can quantificate the activity of the serin kinase GCN2 (general control non-derepressible-2).
This kinase is involved in the stress metabolism of cells. It is activated upon starvation (amino acid depletion). Its natural substrate is eIF2a (eukaryotic initiation factor 2 alpha subunit), a translation factor, which gets activated (phosphorylated) by GCN2 in case of an amino acid bottleneck in the cells. This in turn leads to a halt of the protein synthesis. Inhibition of GCN2 results in stopping this mechanism: The cell can not stop protein production upon “starvation” stress.
The assay is run in two steps: the enzymatic reaction and the detection step. In the first step GCN2 is incubated with 10 μM ATP and 80 nM of the GFP-labelled substrate eIF2alpha at room temperature.
The enzymatic reaction is stopped by addition of EDTA. The amount of phosphorylated eIF2alpha is determined by TR-FRET (Lanthascreen): A complex is formed consisting of antibody and GFP labelled phospho-eIF2a, which allows a FRET upon exitation at 340 nm.
Final Concentrations in the Enzymatic Reaction • Hepes, pH 7.0 50 mM • MgCl2 10 mM • MnCl2 5 mM • BSA 0.1% • DMSO 1% • ATP 10 uM • DTT 2 mM • GFP-eIF2a 80 nM (substrate) • GCN2 30 nM (enzyme)

SYK = target: T1, SYK (Homo sapiens, UniProt P43405); assay: SYK enzyme assay (Flash plate assay / Caliper mobility shift assay); assay type: biochemical; details: for SYK (enzyme assay) % at 3 μM: 100% corresponds to zero effect, −50% corresponds to IC50
T1 construct: purchased BPS Bioscience, CA, USA
Experimental: The kinase assay is performed either as 384-well Flashplate assay (for e.g. Topcount measurement) or as 384-well Image-Flashplate assay (for LEADseeker measurement).
2.5 nM SYK, 400 nM Biotin-Aha-Aha-[…]
and 10 μM ATP (spiked with 0.3 μCi 33P-ATP/well) are incubated in a total volume of 50 μl (60 mM Hepes, 10 mM MgCl2, 1.2 mM Dithiothreitol, 0.02% Brij35, 0.1% BSA, pH 7.5) with or without test compound for 1 hours at 30° C. The reaction is stopped with 25 μl 200 mM EDTA. After 30 Min at 30° C. the liquid is removed and each well washed thrice with 100 μl 0.9% sodium chloride solution. Non-specific reaction is determined in presence of 0.1 μM Staurosporine. Radioactivity is measured with Topcount (when using Flashplates) or with LEADseeker (when using Image-Flashplates) respectively. Results (e.g. IC50-values) are calculated with program tools provided by the IT-department (e.g. Symyx Assay Explorer, Genedata Screener).
Enzymatic Assays Using the Caliper LifeSciences Technology
The assays described here are performed on the Caliper Life Sciences LC3000 system This technology provides data on enzyme activity via measurement of the relative amounts of phosphorylated or unphosphorylated fluorescently labelled substrate peptide at the end of an enzymatic reaction.
These different states of peptide are resolved by applying a potential difference across the sample. The presence of the charged phosphate group on the product (as opposed to the substrate) causes a different peptide mobility between the two peptides. This is visualized by excitation of the fluorescent label on the substrate and product peptides and represented as peaks within the analysis software.
In order to measure inhibitor activity of kinase inhibitors on this technology, a TTP Mosquito liquid handling instrument is used to place 0.25 ul of the appropriate concentration of inhibitor in 100% DMSO (for a dose response curve calculation) into each well of a 384-well plate. To this reaction components are added to a final volume of 25 ul. The table below indicates the sequences and concentrations for the assays described in this report. Standard components are 1 mM DTT (Sigma, D0632), 1 mM MgCl2 (Sigma, M1028), 100 mM HEPES pH 7.5 (Calbiochem, 391338), 0.015% Brij-35 (Sigma, B4184).
The reaction is incubated for 90 min at 25 C, and then stopped by the addition of 70 ul of Stop buffer (100 mM HEPES pH 7.5, 0.015% Brij-35, 10 mM EDTA (Sigma, E7889)).
The plate is read on a Caliper LC 3000 in an Off-Chip mobility shift assay format, on a 12-sipper chip. Unphosphorylated substrate and phosphorylated product peptide resolve as separate peaks allowing direct measurement of percentage of conversion of substrate to product. The percent conversion can be plotted against concentration of inhibitor to produce a sigmoidal dose response curve, from which an IC50 can be calculated using GeneData Condoseo or a similar product.

Sequence of GCN2 (Q9P2K8 whole entry): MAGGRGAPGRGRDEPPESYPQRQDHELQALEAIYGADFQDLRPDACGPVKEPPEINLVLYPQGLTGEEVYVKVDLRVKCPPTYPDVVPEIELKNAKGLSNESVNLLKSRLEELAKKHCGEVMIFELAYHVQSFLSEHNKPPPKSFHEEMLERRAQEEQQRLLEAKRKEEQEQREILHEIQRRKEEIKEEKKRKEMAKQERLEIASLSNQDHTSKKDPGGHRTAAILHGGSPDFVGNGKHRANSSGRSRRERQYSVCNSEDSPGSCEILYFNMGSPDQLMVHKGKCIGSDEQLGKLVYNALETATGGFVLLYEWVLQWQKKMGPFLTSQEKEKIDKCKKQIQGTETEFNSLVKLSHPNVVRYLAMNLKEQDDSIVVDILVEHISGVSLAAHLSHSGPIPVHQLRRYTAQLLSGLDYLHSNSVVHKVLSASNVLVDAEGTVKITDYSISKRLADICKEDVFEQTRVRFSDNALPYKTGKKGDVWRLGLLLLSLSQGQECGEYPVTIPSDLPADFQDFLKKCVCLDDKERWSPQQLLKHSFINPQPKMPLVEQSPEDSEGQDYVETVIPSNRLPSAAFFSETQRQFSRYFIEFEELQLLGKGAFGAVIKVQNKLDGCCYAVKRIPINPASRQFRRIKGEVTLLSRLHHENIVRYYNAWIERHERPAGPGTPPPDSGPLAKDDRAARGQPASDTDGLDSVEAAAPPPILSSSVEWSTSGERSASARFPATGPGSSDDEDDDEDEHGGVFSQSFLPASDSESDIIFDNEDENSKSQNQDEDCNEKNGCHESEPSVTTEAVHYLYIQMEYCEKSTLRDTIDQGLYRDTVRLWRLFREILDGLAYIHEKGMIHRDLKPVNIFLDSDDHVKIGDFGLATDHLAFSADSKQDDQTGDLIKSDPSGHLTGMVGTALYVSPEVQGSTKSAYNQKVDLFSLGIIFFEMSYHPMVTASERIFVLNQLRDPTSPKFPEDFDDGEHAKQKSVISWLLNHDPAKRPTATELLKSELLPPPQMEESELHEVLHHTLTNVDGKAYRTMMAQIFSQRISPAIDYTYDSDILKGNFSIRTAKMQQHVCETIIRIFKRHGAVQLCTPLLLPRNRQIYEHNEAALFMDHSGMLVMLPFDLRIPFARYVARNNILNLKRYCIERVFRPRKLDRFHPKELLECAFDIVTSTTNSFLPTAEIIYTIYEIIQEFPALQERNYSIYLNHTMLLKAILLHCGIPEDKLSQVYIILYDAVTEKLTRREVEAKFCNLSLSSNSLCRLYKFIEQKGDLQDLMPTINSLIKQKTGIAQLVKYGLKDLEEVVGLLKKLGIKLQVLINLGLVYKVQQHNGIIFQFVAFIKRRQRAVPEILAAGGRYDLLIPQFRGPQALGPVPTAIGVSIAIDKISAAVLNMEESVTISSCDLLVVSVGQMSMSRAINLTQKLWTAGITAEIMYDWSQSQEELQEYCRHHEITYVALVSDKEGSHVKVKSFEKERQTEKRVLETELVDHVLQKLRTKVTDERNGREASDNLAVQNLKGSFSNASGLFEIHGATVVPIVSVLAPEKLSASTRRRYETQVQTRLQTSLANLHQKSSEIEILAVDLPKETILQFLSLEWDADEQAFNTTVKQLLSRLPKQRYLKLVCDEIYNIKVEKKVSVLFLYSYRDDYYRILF

| SMILES | IC50 (GCN2) | SYK (enzyme assay) % at 3 μM (SYK) | IC50 (SYK) | GCN2 (enzyme assay) % at 10 μM (GCN2) |
| --- | --- | --- | --- | --- |
| COc1cccc(Nc2nc3cncc(-c4ccccc4)n3n2)c1 [Compound A28] | < 1000 nM | −2@3% | – | – |
| Cn1cc(-c2cncc3nc(Nc4ccc(N5CCOCC5)cc4)nn23)cn1 [Compound A35, [5-(1-methyl-1H-pyrazol-4-yl)-[1,2,4]triazolo[1,5-a]pyrazin-2-yl]-(4-morpholin-4-yl-phenyl)-amine] | < 1000 nM | – | < 1000 nM | – |
| c1ccc(-c2ccccc2-c2cncc3nc(Nc4ccc(N5CCOCC5)cc4)nn23)cc1 [Compound A36, (5-biphenyl-2-yl-[1,2,4]triazolo[1,5-a]pyrazin-2-yl)-(4-morpholin-4-yl-phenyl)-amine] | – | – | 1000 to 5000 nM | −4@10% |
| O=C1Cc2cc(Nc3nc4cncc(-c5cnn(CCN6CCOCC6)c5)n4n3)ccc2N1 [Compound A49, 5-{5-[1-(2-morpholin-4-yl-ethyl)-1H-pyrazol-4-yl]-[1,2,4]triazolo[1,5-a]pyrazin-2-ylamino}-1,3-dihydro-indol-2-one] | 1000 to 5000 nM | −19@3% | – | – |
| COc1cc(Nc2nc3cncc(-c4cnn(CCC(C)C)c4)n3n2)ccc1N1CCN(C)CC1 [Compound A76, [3-methoxy-4-(4-methyl-piperazin-1-yl)-phenyl]-{5-[1-(3-methyl-butyl)-1H-pyrazol-4-yl]-[1,2,4]triazolo[1,5-a]pyrazin-2-yl}-amine] | < 1000 nM | – | 1000 to 5000 nM | – |
| Cn1cc(-c2c(-c3ccccc3)ncc3nc(Nc4ccc(N5CCOCC5)cc4)nn23)cn1 [Compound A45, [5-(1-methyl-1H-pyrazol-4-yl)-6-phenyl-[1,2,4]triazolo[1,5-a]pyrazin-2-yl]-(4-morpholin-4-yl-phenyl)-amine] | – | – | < 1000 nM | 2@10% |
| Cn1cc(-c2cncc3nc(Nc4cccc(C#N)c4)nn23)cn1 [Compound A57, 3-[5-(1-methyl-1H-pyrazol-4-yl)-[1,2,4]triazolo[1,5-a]pyrazin-2-ylamino]-benzonitrile] | 1000 to 5000 nM | – | 5000 to 10000 nM | – |
| Cc1cc(Nc2nc3cncc(-c4cnn(C)c4)n3n2)ccc1OC(F)(F)F [Compound A64, [5-(1-methyl-1H-pyrazol-4-yl)-[1,2,4]triazolo[1,5-a]pyrazin-2-yl]-(3-methyl-4-trifluoromethoxy-phenyl)-amine] | < 1000 nM | – | 1000 to 5000 nM | – |
| c1cncc(Nc2nc3cncc(-c4ccc(N5CCOCC5)cc4)n3n2)c1 [Compound A16, [5-(4-morpholin-4-yl-phenyl)-[1,2,4]triazolo[1,5-a]pyrazin-2-yl]-pyridin-3-yl-amine] | < 1000 nM | 1.5@3% | – | – |
| CC(=O)Nc1ccc(Nc2nc3cncc(-c4cnn(C)c4)n3n2)cc1C [Compound A81, N-{2-methyl-4-[5-(1-methyl-1H-pyrazol-4-yl)-[1,2,4]triazolo[1,5-a]pyrazin-2-ylamino]-phenyl}-acetamide] | < 1000 nM | – | 1000 to 5000 nM | – |
| c1cc(N2CCOCC2)ccc1Nc1nc2cncc(-c3cnn(CCN4CCOCC4)c3)n2n1 [Compound A56, {5-[1-(2-morpholin-4-yl-ethyl)-1H-pyrazol-4-yl]-[1,2,4]triazolo[1,5-a]pyrazin-2-yl}-(4-morpholin-4-yl-phenyl)-amine] | 1000 to 5000 nM | – | 1000 to 5000 nM | – |
| O=C1Cc2cc(Nc3nc4cncc(-c5ccc(N6CCOCC6)cc5)n4n3)ccc2N1 [Compound A15, 5-[5-(4-morpholin-4-yl-phenyl)-[1,2,4]triazolo[1,5-a]pyrazin-2-ylamino]-1,3-dihydro-indol-2-one] | < 1000 nM | – | 1000 to 5000 nM | – |
| CN(C)Cc1nc2cc(Nc3nc4cncc(-c5ccc6c(cnn6C)c5)n4n3)ccc2[nH]1 [Compound A6, (2-dimethylaminomethyl-1H-benzoimidazol-5-yl)-[5-(1-methyl-1H-indazol-5-yl)-[1,2,4]triazolo[1,5-a]pyrazin-2-yl]-amine] | < 1000 nM | – | 1000 to 5000 nM | – |
| Cn1cc(-c2cncc3nc(Nc4ccc5c(c4)NC(=O)C5(C)C)nn23)cn1 [Compound A13, 3,3-dimethyl-6-[5-(1-methyl-1H-pyrazol-4-yl)-[1,2,4]triazolo[1,5-a]pyrazin-2-ylamino]-1,3-dihydro-indol-2-one] | < 1000 nM | – | < 1000 nM | – |
| COc1cc(Nc2nc3cncc(-c4cccc(O)c4)n3n2)ccc1N1CCN(C)CC1 [Compound A86, 3-{2-[3-methoxy-4-(4-methyl-piperazin-1-yl)-phenylamino]-[1,2,4]triazolo[1,5-a]pyrazin-5-yl}-phenol] | < 1000 nM | – | < 1000 nM | – |
| Cc1cc(Nc2nc3cncc(-c4cnn(C)c4)n3n2)ccc1NC(=O)C1CCC1 [Compound A65, cyclobutanecarboxylic acid {2-methyl-4-[5-(1-methyl-1H-pyrazol-4-yl)-[1,2,4]triazolo[1,5-a]pyrazin-2-ylamino]-phenyl}-amide] | < 1000 nM | – | 5000 to 10000 nM | – |
| COc1cc(Nc2nc3cncc(-c4cnn(C)c4)n3n2)ccc1N1CCN(C)CC1 [Compound A67, [3-methoxy-4-(4-methyl-piperazin-1-yl)-phenyl]-[5-(1-methyl-1H-pyrazol-4-yl)-[1,2,4]triazolo[1,5-a]pyrazin-2-yl]-amine] | < 1000 nM | – | 1000 to 5000 nM | – |
| COc1cc(Nc2nc3cncc(-c4cnn(C)c4)n3n2)ccc1NC(=O)C1CCOCC1 [Compound A89, tetrahydro-pyran-4-carboxylic acid {2-methoxy-4-[5-(1-methyl-1H-pyrazol-4-yl)-[1,2,4]triazolo[1,5-a]pyrazin-2-ylamino]-phenyl}-amide] | < 1000 nM | – | 5000 to 10000 nM | – |
| Cn1cc(-c2cncc3nc(NC(=O)C4CCNCC4)nn23)cn1 [Compound A74, piperidine-4-carboxylic acid [5-(1-methyl-1H-pyrazol-4-yl)-[1,2,4]triazolo[1,5-a]pyrazin-2-yl]-amide] | 5000 to 10000 nM | 4@3% | – | – |
| Cn1cc(-c2cncc3nc(Nc4ccc5c(c4)OCCO5)nn23)cn1 [Compound A59, (2,3-dihydro-benzo[1,4]dioxin-6-yl)-[5-(1-methyl-1H-pyrazol-4-yl)-[1,2,4]triazolo[1,5-a]pyrazin-2-yl]-amine] | < 1000 nM | – | 1000 to 5000 nM | – |
| COc1cc(Nc2nc3cncc(-c4cnn(C5CCOCC5)c4)n3n2)ccc1N1CCN(C)CC1 [Compound A77, [3-methoxy-4-(4-methyl-piperazin-1-yl)-phenyl]-{5-[1-(tetrahydro-pyran-4-yl)-1H-pyrazol-4-yl]-[1,2,4]triazolo[1,5-a]pyrazin-2-yl}-amine] | < 1000 nM | – | 1000 to 5000 nM | – |
| COc1cc(Nc2nc3cncc(-c4ccc(N5CCOCC5)cc4)n3n2)ccc1N1CCN(C)CC1 [Compound A91, [3-methoxy-4-(4-methyl-piperazin-1-yl)-phenyl]-[5-(4-morpholin-4-yl-phenyl)-[1,2,4]triazolo[1,5-a]pyrazin-2-yl]-amine] | < 1000 nM | – | 1000 to 5000 nM | – |
| COc1cccc(Nc2nc3cnc(C)cn3n2)c1 [Compound A24, (3-methoxy-phenyl)-(6-methyl-[1,2,4]triazolo[1,5-a]pyrazin-2-yl)-amine] | – | 1@3% | – | – |

From US20150051202A1, “TRIAZOLOPYRAZINE DERIVATIVES” (Merck Patent GmbH, priority 2012, published 2015)
